Measured values: paper PMC9145393, “Design, Semisynthesis, and Estrogenic Activity of Lignan Derivatives from Natural Dibenzylbutyrolactones” (Pharmaceuticals, 2022)

How the values were obtained:
[1] = test system: ER-dependent transcriptional activity in T47D-KBluc cells; assay: ERE-luciferase reporter in T47D-KBluc cells, agonist assessment (absence of E2); format: cell-based, human
Experimental: Lactols (5) and (6) were tested as a mixture of the two epimers obtained.
Chemical screening was carried out by using T47D-KBluc cells, an ER+ BC cell line that is stably transfected with the pGL2.TATA.Inr.Luc.neo containing three ER-responsive elements (ERE). The T47D-KBluc cells were maintained in standard growth media as detailed above. Dosing media was further modified by reduction of DCC-FBS to 5%. […] Chemical screening was also carried out by using the triple negative BC cell line MDA-kb2 cells that stably expresses pMMTV.neo.luc gene, an AR- and GR-responsive reporter gene. […] The T47D-KBluc cells or the MDA-kb2 cells were seeded at 100,000 cells per well in 24-well plates (Nunclon, Sigma-Aldrich, Darmstadt, Germany ) and allowed to attach overnight. Then, the media was replaced with 1 mL/well of dosing media and test compounds incubated 24 h. Then, the cells were harvested in 100 µL passive lysis buffer (Promega, Madison, WI, USA) per well. The relative light units (RLUs), which correspond to luciferase activity from each sample, were measured by using Luciferase Assay Reagent (Promega) in a Clarity luminescence microplate reader (BIOTEK, Winooski, VT, USA). The RLUs from each sample were normalized by protein concentration and converted to fold induction with respect to vehicle-treated control. […] Then, the percent of efficacy (E) of each tested compound, as compared with Emax, was calculated. […] Data are expressed as mean ± SEM of triplicate independent experiments, where each treatment was assayed in triplicate. […] Duplicate plates were dosed in parallel to control the effects of compounds on cell viability. The protein concentration was measured in cell lysate using colorimetric assay reagent (BioRad, CA, USA).

T47D cells = assay: MTT cell viability, E2-depleted T47D cells; format: cell-based, human; conditions: 10 μM, 24 h, absence of E2
Experimental: (§1) The effects of lignan derivatives were evaluated on human ER+ BC cells.
(§2) Cells were maintained in RPMI (Lonza, Basel, Switzerland) growth media, without phenol red, supplemented with 10% fetal bovine serum (FBS) (Lonza), 2 mM glutamine, 10 mM HEPES, 1 mM sodium pyruvate, 100 UI/mL penicillin and 100 μg/mL streptomycin. Cells were growth in a humidified incubator with 5% CO2 at 37 °C.
(§3) The cells were maintained in standard growth media as detailed above and seeded at exponential growth density (6000 cells per well) in 96-well plates (BD Falcon, France). The cells were then treated with vehicle or tests compounds (from 0.01 μM to 10 μM) for 24–72 h. The mitochondrial metabolization of the tetrazolium salt 3-(4,5-methyltiazol-2yl-)-2,5diphenyl-tetrazolium bromide] (MTT) (Applichen, Darmstadt, Germany) was used as an indicator of cell viability.
(§4) Figure 6 Effects of lignans on ER+ breast cancer cell viability. […] Then, the mitochondrial metabolization of MTT was used as an indicator of cell viability, as described in the Material and Methods. Data are expressed as mean ± SEM for at least three independent experiments, where each concentration is tested in triplicate. * p < 0.05, ** p < 0.01, and *** p < 0.001 versus VEH-treated cells.

T47D and MCF7 cells = assay: MTT cell viability, E2 non-depleted T47D and MCF7 cells, 72 h; format: cell-based, human; conditions: 10 μM, maximum reduction
Experimental: as §1, §2, §3, §4

rhERα-LBD = biological target: T1, rhERα-LBD (Homo sapiens, UniProt P03372); assay: LanthaScreen TR-FRET competitive binding assay; conditions: 10-point competition curves; Mean ± SE; read-out: IC50 (inhibition of Fluormone tracer binding to rhERα)
T1 sequence (P03372 311-547 limits assumed): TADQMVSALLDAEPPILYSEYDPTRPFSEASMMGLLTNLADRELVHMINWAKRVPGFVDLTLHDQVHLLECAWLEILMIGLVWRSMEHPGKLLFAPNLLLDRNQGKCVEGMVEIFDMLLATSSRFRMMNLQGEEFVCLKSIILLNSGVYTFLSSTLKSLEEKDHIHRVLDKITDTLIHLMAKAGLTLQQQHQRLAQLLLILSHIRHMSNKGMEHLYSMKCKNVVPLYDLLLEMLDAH
Experimental: Next, the binding of lignan derivatives to the LBD of rhERα was analyzed by using time-resolved fluorescence resonance energy transfer (TR-FRET) competitive binding assay. […] The LanthaScreen^TM TR-FRET Nuclear Receptor (NR) binding assay (SelectScreen^TM Profiling Service, Life Technologies, Carlsbad, CA, USA) was used for screening of potential binding of lignan derivatives to human ERα [33]. Briefly, the kit uses the recombinant human ERα (rhERα) protein and a tight binding, selective fluorescent ligand, Fluormone^TM tracer. […] The rhERα protein and the tracer form rhERα/tracer complex, resulting in a high FP value. […] Dose-response competition curves were fitted by nonlinear regression analyses in the GraphPad software 8 (GraphPad Software, San Diego, CA, USA) to obtain IC50 values.
Data are expressed as mean ± SEM for from at least three independent experiments, where each concentration is tested in triplicate.

[2] = biological target: T2, ERα from rat uterine cytosol (RUC) (Rattus norvegicus, UniProt P06211); assay: Rat uterine cytosol competitive radioligand ([3H]E2) binding assay
T2 construct: from tissue
T2 sequence (P06211 1-600): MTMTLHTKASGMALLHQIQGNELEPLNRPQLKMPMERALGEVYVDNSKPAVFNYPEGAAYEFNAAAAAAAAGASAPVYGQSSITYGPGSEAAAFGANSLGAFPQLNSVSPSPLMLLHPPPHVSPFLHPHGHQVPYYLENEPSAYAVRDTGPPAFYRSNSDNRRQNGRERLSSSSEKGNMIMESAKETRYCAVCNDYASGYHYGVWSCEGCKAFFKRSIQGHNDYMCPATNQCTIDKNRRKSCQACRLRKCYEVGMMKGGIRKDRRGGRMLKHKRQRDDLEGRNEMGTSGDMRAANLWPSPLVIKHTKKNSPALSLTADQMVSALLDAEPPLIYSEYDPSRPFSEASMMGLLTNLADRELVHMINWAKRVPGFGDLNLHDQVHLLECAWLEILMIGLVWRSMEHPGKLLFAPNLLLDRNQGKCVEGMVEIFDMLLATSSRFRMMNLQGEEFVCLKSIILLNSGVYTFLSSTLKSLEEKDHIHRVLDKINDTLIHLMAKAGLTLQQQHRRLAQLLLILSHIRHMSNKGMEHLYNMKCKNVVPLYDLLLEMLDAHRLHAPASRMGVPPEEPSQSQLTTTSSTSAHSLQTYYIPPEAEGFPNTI

## COc1ccc(C[C@@H](C)[C@H](C)Cc2ccc(O)c(O)c2)cc1OC [Compound 14, 4-((2R,3R)-4-(3,4-Dimethoxyphenyl)-2,3-dimethylbutyl)benzene-1,2-diol]
[1]
  E/Emax (%) VEH: weak estrogenic activity
[1]; Homo sapiens, read-out: E/Emax (%) VEH
  Emax: 21.7 ± 4.12%
T47D cells
  reduction of cell viability: reduced cell viability
T47D and MCF7 cells
  reduction of cell viability: 33.4%
rhERα-LBD
  IC50: 0.16 ± 0.11 µM
[2]
  IC50: 3.96 ± 0.98 µM
